Source: patent publication US7256198B2, “Pyrimidoindolones and methods for using same” (Wyeth, priority 2004, dated 2007)
Counter-ions that a name gives are not always drawn.

How the values were obtained:
recombinant caspase 3 = target: T1, recombinant caspase 3 (Homo sapiens, UniProt P42574); test: Caspase 3 Inhibition Assay (Ac-DEVD-AFC fluorogenic substrate cleavage); assay type: biochemical; settings: pH 7.2, 23° C.; for inhibition at 50 µM: @ 50 μM compound, recombinant caspase 3, Ac-DEVD-AFC 25 μM, read-out: percent inhibition at the highest compound concentration; for IC50: recombinant caspase 3 0.25 nM, Ac-DEVD-AFC 25 μM
T1 construct: His tag (C); made in house; host or cells: E. coli
T1 sequence (P42574 29-175 limits assumed): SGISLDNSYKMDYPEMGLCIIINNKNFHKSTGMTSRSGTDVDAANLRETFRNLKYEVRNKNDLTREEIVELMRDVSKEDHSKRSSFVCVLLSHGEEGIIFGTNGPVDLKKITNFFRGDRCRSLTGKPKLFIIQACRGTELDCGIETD
T1 sequence (P42574 176-277 limits assumed): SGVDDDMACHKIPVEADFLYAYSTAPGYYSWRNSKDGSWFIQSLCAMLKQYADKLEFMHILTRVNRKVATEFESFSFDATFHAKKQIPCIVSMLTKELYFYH
Method: Caspase 3 was expressed intracellularly in E. coli with a c-terminal His tag. Fermentation was performed at 25° C. in a B. Braun Biotech Biostat C 10 liter bioreactor vessel. The culture was collected in IL bottles and centrifuged in Komspin KA-7.1000 rotors at approximately 8000 RCF (Relative Centrifugal Force). The cell pellets were re-suspended in 20 mM Tris pH 8.0, 500 mM NaCl, and 5 mM imidazole. The cell suspension was disrupted by passing 5 times through a microfluidizer Model 110Y (Microfluidics Corp, Newton, Mass). After centrifugation (13 kg, 30 min at 4 C), the supernatant was applied to a column of Nickle-NTA agarose. The Caspase 3 was eluted with a gradient of 5 mM to 150 mM imidazole in the above buffer. Fractions containing Caspase 3 were pooled and concentrated with a Millipore Ultrafree filtration device. The concentrated Caspase 3 solution was loaded unto a TSK gel G3000sw column (Tosoh Bioseph LLC), equilibrated with a buffer of 20 mM PIPES pH 7.2, 100 mM NaCl, 1 mM EDTA & 5 mM Cysteine. Fractions containing Caspase 3 were pooled and concentrated. Sometimes CHAPS was added to 0.1% and sucrose to 10% into the protein sample.
Caspase 3 was assayed at 23° C. (room temp) in 96-well plates using the internally quenched tetrapeptide substrate N-acetyl-aspartyl-glutamyl-valyl-aspartate-7-amino-4-trifluoromethyl coumarin (Ac-DEVD-AFC purchased from Biomol). The assays are conducted at pH 7.2 in a buffered system containing 20 mM PIPES, 100 mM NaCl, 1 mM EDTA, 0.1% CHAPS, 10% sucrose and 5 mM L-cysteine. […] A steady state rate of substrate cleavage is obtained for analysis.
The progress curves generated were fitted by computer to equation 1 to generate an IC50 value. Equation 1: y=Bmax*(1−(x^n/(K^n+x^n))), where Bmax is rate in the absence of inhibitor.

SMILES | melting point | inhibition at 50 µM (recombinant caspase 3) | IC50 (recombinant caspase 3)
CC1(C)CN=C2C(=O)c3cc(Cl)ccc3N2C1 (hydrate or solvate) [Example 14, 8′-Chloro-3′,3′-dimethyl-3′,4′-dihydropyrimido[1,2-a]indol-10(2H)-one] | 153 to 154 °C | – | –
O=C(Nc1ccc2c(c1)C(=O)C1=NCCCN12)c1ccccc1 (as salt: trifluoroacetic acid salt) [Example 17, N-(10-Oxo-2,3,4,10-tetrahydropyrimido[1,2-a]indol-8-yl)benzamide trifluoroacetic acid salt] | 155 to 168 °C | – | –
O=C1C2=NCCCN2c2ccc(Br)cc21 [Example 9, 8-Bromo-3,4-dihydropyrimido[1,2-a]indol-10(2H)-one] | 166 to 168 °C (dec.) | 72% | –
CC1(C)CN=C2C(=O)c3cc(S(=O)(=O)N4CCc5ccccc54)ccc3N2C1 [Example 32, 8-(2,3-Dihydro-1H-indol-1-ylsulfonyl)-3,3-dimethyl-3,4-dihydropyrimido[1,2-a}indol-10(2H)-one] | 169.8 to 170.8 °C | – | 16 nM
COC[C@@H]1CCCN1S(=O)(=O)c1ccc2c(c1)C(=O)C1=NCC3(CCCC3)CN12 | 171.2 to 171.9 °C | – | –
CC1(C)CN=C2C(=O)c3cc(S(=O)(=O)N4CCC[C@H]4COc4ccccc4)ccc3N2C1 | 73 to 88 °C (dec.) | – | –
O=C1C2=NCCCN2c2ccc(S(=O)(=O)N3CCC[C@H]3COc3ccccc3)cc21 [Example 3] | 159 to 160 °C | – | –
COC[C@H]1CCCN1S(=O)(=O)c1ccc2c(c1)C(=O)C1=NCC(C)(C)CN12 | 161 to 164 °C | – | –
O=C1C2=NCCCN2c2cc(Cl)c([N+](=O)[O-])cc21 (hydrate or solvate) [Example 15, 7-Chloro-8-nitro-3,4-dihydropyrimido[1,2-a]indol-10(2H)-one] | 152 to 165 °C | – | –
O=C1C2=NCCCN2c2ccc(F)cc21 [Example 18, 8-Fluoro-3,4-dihydropyrimido[1,2-a]indol-10(2H)-one] | 150 to 152 °C | 26% | –
COC[C@@H]1CCCN1S(=O)(=O)c1cc2c(cc1Cl)N1CCCN=C1C2=O (hydrate or solvate) [Example 5, 7-Chloro-8-{[(2S)-2-(methoxymethyl)pyrrolidin-1-yl-]sulfonyl}-3,4-dihydropyrimido[1,2-a]indol-10(2H)-one] | 127 to 130 °C | – | –
COC[C@@H]1CCCN1S(=O)(=O)c1ccc2c(c1)C(=O)C1=NCC(C)(C)CN12 | 163 to 165 °C | – | –
CC1CCN2C(=N1)C(=O)c1cc(S(=O)(=O)N3CCCC3)ccc12 (stereo not shown) [Example 87] | 152.5 to 153 °C | – | 15 nM
CNS(=O)(=O)c1ccc2c(c1)C(=O)C1=NCCCN12 [Example 7, N-Methyl-10-oxo-2,3,4,10-tetrahydropyrimido[1,2-a]indole-8-sulfonamide] | 170 to 183 °C (dec.) | – | 1270 nM
COc1ccc2c(c1)C(=O)C1=NCCCN12 (hydrate or solvate) [Example 11, 8-Methoxy-3,4-dihydropyrimido[1,2-a]indol-10(2H)-one] | 152 °C | – | –
Nc1cc2c(cc1Cl)N1CCCN=C1C2=O [Example 16, 8-Amino-7-chloro-3,4-dihydropyrimido[1,2-a]indol-10(2H)-one] | > 270 °C | – | –

SMILES | melting point | inhibition at 50 µM (recombinant caspase 3) | IC50 (recombinant caspase 3)
CC1(C)CN=C2C(=O)c3cc(S(=O)(=O)N4CCCC4)ccc3N2C1 [Example 12, 3,3-Dimethyl-8-(pyrrolidin-1-ylsulfonyl)-3,4-dihydropyrimido[1,2-a]indol-10(2H)-one] | 200 to 201 °C | – | 9 nM
Cc1ccc2c(c1)C(=O)C1=NCCCN12 (hydrate or solvate) [Example 10, 8-Methyl-3,4-dihydropyrimido[1,2-a]indol-10(2H)-one] | 163 to 164 °C | – | –
CC1(C)CN=C2C(=O)c3cc(C#N)ccc3N2C1 (hydrate or solvate) [Example 20, 3,3-Dimethyl-10-oxo-2,3,4,10-tetrahydropyrimido[1,2-a]indole-8-carbonitrile] | 178 to 184 °C | – | –
CC1(C)CN=C2C(=O)c3cc(C(=O)N4CCCCC4)ccc3N2C1 [Example 79, 3,3-Dimethyl-8-(piperidin-1-ylcarbonyl)-3,4-dihydropyrimido[1,2-a]indol-10(2H)-one] | – | – | 21000 nM
CC1(C)CN=C2C(=O)c3cc(S(=O)(=O)N4CCC[C@H]4COc4cccnc4Cl)ccc3N2C1 [Example 43, 8-[((2S)-2-{[(2-Chloropyridin-3-yl)oxy]methyl}pyrrolidin-1-yl)sulfonyl]-3,3-dimethyl-3,4-dihydropyrimido[1,2-a]indol-10(2H)-one] | – | – | 7 nM
CC1(C)CN=C2C(=O)c3cc(S(=O)(=O)N4CCC[C@H]4CO)ccc3N2C1 [Example 8, 8-{[(2S)-2-(Hydroxymethyl)pyrrolidin-1-yl]sulfonyl}-3,3-dimethyl-3,4-dihydropyrimido[1,2-a]indol-10(2H)-one] | 91 to 96 °C (dec.) | – | 25 nM
CN1CCN(C[C@@H]2CCCN2S(=O)(=O)c2ccc3c(c2)C(=O)C2=NCC4(CCCC4)CN23)CC1 [Example 84, 8′-({(2S)-2-[(4-Methylpiperazin-1-yl)methyl]pyrrolidin-1-yl}sulfonyl)spiro[cyclopentane-1,3′-pyrimido[1,2-a]indol]-10′(2′H)-one] | – | – | 30 nM
CC1CCN=C2C(=O)c3cc(Br)ccc3N21 (stereo not shown) [Example 13, 8-Bromo-4-methyl-3,4-dihydropyrimido[1,2-a]indol-10(2H)-one] | 127 to 129 °C | – | 50000 nM
O=C1C2=NCCCN2c2ccc(O)cc21 [Example 19, 8-Hydroxy-3,4-dihydropyrimido[1,2-a]indol-10(2H)-one] | 265 °C (dec.) | 2% | –
CC(=O)c1ccc(OC[C@@H]2CCCN2S(=O)(=O)c2ccc3c(c2)C(=O)C2=NCC(C)(C)CN23)c(C)c1 [Example 27, 8-({(2S)-2-[(4-Acetyl-2-methylphenoxy)methyl]pyrrolidin-1-yl}sulfonyl)-3,3-dimethyl-3,4-dihydropyrimido[1,2-a]indol-10(2H)-one] | – | – | 55 nM
COC[C@@H]1Cc2ccccc2N1S(=O)(=O)c1ccc2c(c1)C(=O)C1=NCC(C)(C)CN12 [Example 33, 8-{[(2S)-2-(Methoxymethyl)-2,3-dihydro-1H-indol-1-yl]sulfonyl}-3,3-dimethyl-3,4-dihydropyrimido[1,2-a]indol-10(2H)-one] | 173.4 to 175 °C | – | 555 nM
COC[C@@H]1CCCN1S(=O)(=O)c1ccc2c(c1)C(=O)C1=NCCCN12 [Example 1, 8-{[(2S)-2-(Methoxymethyl)pyrrolidin-1-yl]sulfonyl}-3,4-dihydropyrimido[1,2-a]indol-10(2H)-one] | 171 to 172 °C | – | 27 nM
O=C1C2=NCC3(CCCC3)CN2c2ccc(S(=O)(=O)N3CCC[C@H]3CN3CCOCC3)cc21 [Example 83, 8′-{[(2S)-2-(morpholin-4-ylmethyl)pyrrolidin-1-yl]sulfonyl}spiro[cyclopentane-1,3′-pyrimido[1,2-a]indol]-10′(2′H)-one] | 162.9 to 163.6 °C | – | 14 nM
CC1(C)CN=C2C(=O)c3cc(C(=O)NC4CCCC4)ccc3N2C1 [Example 77, N-Cyclopentyl-3,3-dimethyl-10-oxo-2,3,4,10-tetrahydropyrimido[1,2-a]indole-8-carboxamide] | – | – | 35000 nM
CC1(C)CN=C2C(=O)c3cc(NS(=O)(=O)c4ccc(Cl)c(Cl)c4)ccc3N2C1 [Example 53, 3,4-Dichloro-N-(3,3-dimethyl-10-oxo-2,3,4,10-tetrahydropyrimido[1,2-a]indol-8-yl)benzenesulfonamide] | – | – | 233 nM
